Measurements reported in patent publication EP0258782A2, “Use of 1-(substituted mercapto-hydroxyethyl)-triazoles in the treatment of illnesses” (BAYER AG, priority 1986, dated 1988).
≈ marks a conversion by molar mass, not a printed value.

What was measured:
[1] = tested on: Aspergillus fumigatus; test: Antimycotic in-vitro activity, serial dilution test (MIC); assay type: cell-based; settings: Sabouraud's milieu d'epreuve, 28-37 °C, 96 h, inoculum 5 x 10^3 to 10^4 germs/ml, read-out: MHK-Werte in γ/ml Nährmedium, Aspergillus fumigatus
Experimental: (§1) Die in-vitro-Prüfungen wurden im Reihenverdünnungstest mit Keiminokula von durchschnittlich 5 x 10³ bis 10⁴ Keimen/ml Substrat durchgeführt. Als Nähmedium dienten • a) für Dermatophyten und Schimmelpilze: Sabouraud's milieu d'epreuve • b) für Hefen: Fleischextrakt-Traubenzucker-Bouillon.
(§2) Die Bebrütungstemperatur betrug 28 °C bis 37 °C, die Bebrütungsdauer lag bei 24 bis 96 Stunden bei Hefen und 96 Stunden bei Dermatophyten und Schimmelpilzen.

[2] = tested on: Candida albicans; test: as above; assay type: cell-based; settings: Fleischextrakt-Traubenzucker-Bouillon, 28-37 °C, 24-96 h, inoculum 5 x 10^3 to 10^4 germs/ml, read-out: MHK-Werte in γ/ml Nährmedium, Candida albicans
Experimental: as §1, §2

[3] = tested on: Microsporum canis; test: as above; assay type: cell-based; settings: Sabouraud's milieu d'epreuve, 28-37 °C, 96 h, inoculum 5 x 10^3 to 10^4 germs/ml, read-out: MHK-Werte in γ/ml Nährmedium, Microsporum canis
Experimental: as §1, §2

[4] = tested on: Torulopsis glabrata; test: as above; assay type: cell-based; settings: Nakaseomyces glabratus; Fleischextrakt-Traubenzucker-Bouillon; 28-37 °C, 24-96 h; inoculum 5 x 10^3 to 10^4 germs/ml; read-out: MHK-Werte in γ/ml Nährmedium, Torulopsis glabrata
Experimental: as §1, §2

[5] = tested on: Trichophyton mentagr.; test: as above; assay type: cell-based; settings: Sabouraud's milieu d'epreuve, 28-37 °C, 96 h, inoculum 5 x 10^3 to 10^4 germs/ml, read-out: MHK-Werte in γ/ml Nährmedium, Trichophyton mentagr.
Experimental: as §1, §2

[6] = tested on: Candida-Zellen; test: Antimycotic in-vivo activity (oral) in mouse candidosis; parameters: species or system Mäuse vom Typ SPF-CF1; settings: for Wirkung (Überlebende am 6. Tag p.i.): mice infected i.v. with Candida, 25-100 mg/kg oral, 1 h before and 7 h after infection; for Wirkung compared with (A) and (B): mouse candidosis, oral, statement in words
Experimental: Mäuse vom Typ SPF-CF₁ wurden intravenös mit 1 - 2 x 10⁶ logarithmisch wachsenden Candida-Zellen, die in physiologischer Kochsalzlösung suspendiert werden, infiziert. Eine Stunde vor und sieben Stunden nach der Infektion werden die Tiere mit jeweils 25 - 100 mg/kg Körpergewicht der Präparate oral behandelt.
Unbehandelte Tiere starben 3 bis 6 Tage post infektionem. Die Überlebensrate am 6.Tag post infektionem betrug bei unbehandelten Kontrolltieren etwa 5 %.

[7] = tested on: Trichophyton mentagrophytes; test: In-vivo activity (local) in experimental guinea pig trichophytosis; parameters: species or system Meerschweinchen der Rasse Pirbright-white; settings: for Wirkung (Infektionszeichen): 0,1 % solution in Dimethylsulfoxid : Glycerin = 1 : 4, local, once daily from day 3 p.i.; for Wirkung (in words): guinea pig trichophytosis, local, 0,1 % solution, statement in words
Description: Weiße Meerschweinchen der Rasse Pirbright-white wurden auf dem geschorenen, nicht skarifizierten Rücken mit einer Mikro- und Makrokoniden-Suspension von Trichophyton mentagrophytes infiziert.
Die infizierten Tiere wurden beginnend mit dem 3.Tag p.i. 1 x täglich mit einer 0,1 %igen Lösung der erdingungsgemäßen Präparate (in Dimethylsulfoxid : Glycerin = 1 : 4) lokal behandelt.
Bei unbehandelten Tieren entwickelte sich innerhalb von 12 Tagen p.i. das Typische Bild einer Dermatophytose mit Rötung, Schuppung und Haarausfall bis zum totalen Integument-Defekt an der Infektionsstelle.

MIC [1] | MIC [2] | MIC [3] | MIC [4] | MIC [5] | SMILES | Wirkung (Überlebende am 6. Tag p.i.) [6] | Wirkung compared with (A) and (B) [6] | Wirkung (Infektionszeichen) [7] | Wirkung (in words) [7]
4 µg/mL (≈ 11.5 µM) | 2 µg/mL (≈ 5.75 µM) | 4 µg/mL (≈ 11.5 µM) | 16 µg/mL (≈ 46 µM) | 2 µg/mL (≈ 5.75 µM) | Cc1cccc(CC(C)(C)C(O)(CSC(C)C)Cn2cncn2)c1 (stereo not drawn) [I-65] |  |  |  | 
< 1 µg/mL | < 1 µg/mL | 4 µg/mL (≈ 10.9 µM) | < 1 µg/mL | < 1 µg/mL | CC(C)SCC(O)(Cn1cncn1)C(C)(C)Cc1ccc(Cl)cc1 (stereo not drawn) [I-46] | ++ (= schwache Wirkung = 40 % Überlebende am 6.Tag.p.i.) | bessere Wirkung |  | 
2 µg/mL (≈ 5.93 µM) | < 1 µg/mL | 2 µg/mL (≈ 5.93 µM) | 4 µg/mL (≈ 11.9 µM) | < 1 µg/mL | CCSCC(O)(Cn1cncn1)C(C)(C)Cc1ccc(F)cc1 (stereo not drawn) [I-2] |  |  |  | 
< 1 µg/mL | < 1 µg/mL | 2 µg/mL (≈ 4.85 µM) | < 1 µg/mL | < 1 µg/mL | CC(C)SCC(O)(Cn1cncn1)C(C)(C)Cc1ccc(Br)cc1 (stereo not drawn) [I-40] | +++ (= Wirkung = 60 % Überlebende am 6.Tag.p.i.) | bessere Wirkung | ++++ (gute Wirkung = geringe Rötung, vereinzelt Schuppen) | gute
2 µg/mL (≈ 5.69 µM) | 2 µg/mL (≈ 5.69 µM) | 2 µg/mL (≈ 5.69 µM) | 2 µg/mL (≈ 5.69 µM) | < 1 µg/mL | CC(C)SCC(O)(Cn1cncn1)C(C)(C)Cc1ccc(F)cc1 (stereo not drawn) [I-55] |  |  |  | 
< 1 µg/mL | 2 µg/mL (≈ 5.11 µM) | 2 µg/mL (≈ 5.11 µM) | 16 µg/mL (≈ 40.9 µM) | < 1 µg/mL | CC(C)(Cc1ccc(SC(F)(F)F)cc1)C(O)(CS)Cn1cncn1 (stereo not drawn) [I-63] |  |  |  | 
2 µg/mL (≈ 5.21 µM) | < 1 µg/mL | < 1 µg/mL | 16 µg/mL (≈ 41.7 µM) | < 1 µg/mL | CCSCC(O)(Cn1cncn1)C(C)(C)COc1ccc(Cl)c(C)c1 (stereo not drawn) [I-69] |  |  |  | 
8 µg/mL (≈ 18.4 µM) | 2 µg/mL (≈ 4.61 µM) | 4 µg/mL (≈ 9.22 µM) | < 1 µg/mL | < 1 µg/mL | CC(C)(Cc1ccc(F)cc1)C(O)(CSCc1ccc(Cl)cc1)Cn1cncn1 (stereo not drawn) [I-58] |  |  |  | 
4 µg/mL (≈ 12 µM) | < 1 µg/mL | 2 µg/mL (≈ 6 µM) | 4 µg/mL (≈ 12 µM) | 2 µg/mL (≈ 6 µM) | CCSCC(O)(Cn1cncn1)C(C)(C)Cc1cccc(C)c1 (stereo not drawn) [I-64] |  |  |  | 
< 1 µg/mL | < 1 µg/mL | 2 µg/mL (≈ 4.96 µM) | 16 µg/mL (≈ 39.7 µM) | < 1 µg/mL | CCSCC(O)(Cn1cncn1)C(C)(C)Cc1ccc(OC(F)(F)F)cc1 (stereo not drawn) [I-52] | ++++ (= gute Wirkung = 80 % Überlebende am 6.Tag.p.i.) | bessere Wirkung | +++++ | sehr gute Wirkung
 |  |  |  |  | Cc1cc(Cl)ccc1OC(C)(C)C(O)(CSc1ccc(Cl)cc1)Cn1cncn1 (stereo not drawn) [I-94] | ++++ (= gute Wirkung = 80 % Überlebende am 6.Tag.p.i.) | bessere Wirkung |  | 
< 1 µg/mL | < 1 µg/mL | < 1 µg/mL | 4 µg/mL (≈ 10.9 µM) | < 1 µg/mL | CCCSCC(O)(Cn1cncn1)C(C)(C)Cc1ccc(Cl)cc1 (stereo not drawn) [I-41] |  |  |  | 
< 1 µg/mL | < 1 µg/mL | < 1 µg/mL | 4 µg/mL (≈ 10.8 µM) | < 1 µg/mL | CCSCC(O)(Cn1cncn1)C(C)(C)COc1ccc(Cl)cc1 (stereo not drawn) [I-68] |  |  |  | 
< 1 µg/mL | < 1 µg/mL | < 1 µg/mL | 4 µg/mL (≈ 10.5 µM) | < 1 µg/mL | CC(C)CSCC(O)(Cn1cncn1)C(C)(C)Cc1ccc(Cl)cc1 (stereo not drawn) [I-43] |  |  |  | 
< 1 µg/mL | 2 µg/mL (≈ 4.61 µM) | 2 µg/mL (≈ 4.61 µM) | 4 µg/mL (≈ 9.23 µM) | < 1 µg/mL | CCCSCC(O)(Cn1cncn1)C(C)(C)Cc1ccc(SC(F)(F)F)cc1 (stereo not drawn) [I-60] |  |  |  | 
 |  |  |  |  | CC(C)(Oc1ccc(-c2ccccc2)cc1)C(O)(CSc1ccc(Cl)cc1)Cn1cncn1 (stereo not drawn) [I-93] | +++++ (= sehr gute Wirkung = 90 % Überlebende am 6.Tag.p.i.) | bessere Wirkung |  | 
< 1 µg/mL | 2 µg/mL (≈ 5.65 µM) | < 1 µg/mL | 2 µg/mL (≈ 5.65 µM) | < 1 µg/mL | CCSCC(O)(Cn1cncn1)C(C)(C)Cc1ccc(Cl)cc1 (stereo not drawn) [I-45] |  |  |  | 
< 1 µg/mL | < 1 µg/mL | < 1 µg/mL | < 1 µg/mL | < 1 µg/mL | CCCSCC(O)(Cn1cncn1)C(C)(C)Cc1ccc(OC(F)(F)F)cc1 (stereo not drawn) [I-51] | ++ (= schwache Wirkung = 40 % Überlebende am 6.Tag.p.i.) | bessere Wirkung |  | 
4 µg/mL (≈ 11.1 µM) | < 1 µg/mL | 4 µg/mL (≈ 11.1 µM) | 8 µg/mL (≈ 22.1 µM) | 4 µg/mL (≈ 11.1 µM) | CCCCSCC(O)(Cn1cncn1)C(C)(C)Cc1cccc(C)c1 (stereo not drawn) [I-66] |  |  |  | 
< 1 µg/mL | < 1 µg/mL | < 1 µg/mL | 4 µg/mL (≈ 10.9 µM) | < 1 µg/mL | C=CCSCC(O)(Cn1cncn1)C(C)(C)Cc1ccc(Cl)cc1 (stereo not drawn) [I-44] |  |  |  | 
< 1 µg/mL | < 1 µg/mL | < 1 µg/mL | 8 µg/mL (≈ 23.5 µM) | < 1 µg/mL | CSCC(O)(Cn1cncn1)C(C)(C)Cc1ccc(Cl)cc1 (stereo not drawn) [I-42] |  |  |  | 
< 1 µg/mL | 2 µg/mL (≈ 5.24 µM) | 4 µg/mL (≈ 10.5 µM) | 4 µg/mL (≈ 10.5 µM) | < 1 µg/mL | CCCCSCC(O)(Cn1cncn1)C(C)(C)Cc1ccc(Cl)cc1 (stereo not drawn) [I-47] |  |  |  | 
< 1 µg/mL | < 1 µg/mL | 2 µg/mL (≈ 5.75 µM) | 2 µg/mL (≈ 5.75 µM) | < 1 µg/mL | CCCSCC(O)(Cn1cncn1)C(C)(C)Cc1ccc(C)cc1 (stereo not drawn) [I-49] |  |  |  | 
< 1 µg/mL | < 1 µg/mL | 2 µg/mL (≈ 5.69 µM) | 2 µg/mL (≈ 5.69 µM) | < 1 µg/mL | CCCSCC(O)(Cn1cncn1)C(C)(C)Cc1ccc(F)cc1 (stereo not drawn) [I-53] |  |  |  | 
8 µg/mL (≈ 20.1 µM) | < 1 µg/mL | 2 µg/mL (≈ 5.03 µM) | 8 µg/mL (≈ 20.1 µM) | < 1 µg/mL | CCCSCC(O)(Cn1cncn1)C(C)(C)COc1ccc(Cl)c(C)c1 (stereo not drawn) [I-70] |  |  |  | 
4 µg/mL (≈ 12 µM) | < 1 µg/mL | 2 µg/mL (≈ 6 µM) | 2 µg/mL (≈ 6 µM) | < 1 µg/mL | CCSCC(O)(Cn1cncn1)C(C)(C)Cc1ccccc1C (stereo not drawn) [I-67] |  |  |  | 
2 µg/mL (≈ 4.47 µM) | 8 µg/mL (≈ 17.9 µM) | 2 µg/mL (≈ 4.47 µM) | 32 µg/mL (≈ 71.5 µM) | < 1 µg/mL | CCCCSCC(O)(Cn1cncn1)C(C)(C)Cc1ccc(SC(F)(F)F)cc1 (stereo not drawn) [I-61] |  |  |  | 
2 µg/mL (≈ 4.61 µM) | < 1 µg/mL | < 1 µg/mL | < 1 µg/mL | < 1 µg/mL | CC(C)SCC(O)(Cn1cncn1)C(C)(C)Cc1ccc(SC(F)(F)F)cc1 (stereo not drawn) [I-62] | ++ (= schwache Wirkung = 40 % Überlebende am 6.Tag.p.i.) | bessere Wirkung |  | 
< 1 µg/mL | < 1 µg/mL | < 1 µg/mL | 4 µg/mL (≈ 12 µM) | < 1 µg/mL | CCSCC(O)(Cn1cncn1)C(C)(C)Cc1ccc(C)cc1 (stereo not drawn) [I-50] |  |  |  | 
